Results: PubChem BioAssay AID1508603 (National Center for Advancing Translational Sciences (NCATS), 2020)

system: human liver cytosol stability, half-life; experiment: NCATS Human Liver Cytosol Stability Profiling; conditions: higher = more stable
Protocol: Assay submitter (PI): Pranav Shah Ph.D.
NIH Center for Advancing Translational Sciences
Over the last few decades, chemists have become skilled at designing compounds that avoid cytochrome P (CYP) 450 mediated metabolism. Typical screening assays are performed in liver microsomal fractions and it is possible to overlook the contribution of cytosolic enzymes until much later in the drug discovery process. Few data exist on cytosolic enzyme-mediated metabolism and no reliable tools are available to chemists to help design away from such liabilities. In this study, we screened 1450 compounds for liver cytosol-mediated metabolic stability and extracted transformation rules that might help medicinal chemists in optimizing compounds with these liabilities. […] Matched molecular pairs analysis was performed in conjunction with qualitative-structure activity relationship modeling to identify chemical structure transformations affecting cytosolic stability. The transformation rules were prospectively validated on the test set. In addition, selected rules were validated on a diverse chemical library and the resulting pairs were experimentally tested to confirm whether the identified transformations could be generalized. The validation results, comprising nearly 250 library compounds and corresponding half-life data, are made publicly available. The datasets were also used to generate in silico classification models, based on different molecular descriptors and machine learning methods, to predict cytosol-mediated liabilities. To the best of our knowledge, this is the first systematic in silico effort to address cytosolic enzyme-mediated liabilities (Shah 2020).
Shah, P., Siramshetty, V.B., Zakharov, A.V. et al. Predicting liver cytosol stability of small molecules. J Cheminform 12, 21 (2020). https://doi.org/10.1186/s13321-020-00426-7
Compounds are classified as unstable (t 1/2 < 30 min) or stable (t 1/2 > 30 min).
1. Shah, P. et al. An Automated High-Throughput Metabolic Stability Assay Using an Integrated High-Resolution Accurate Mass Method and Automated Data Analysis Software. Drug Metab Dispos 44, 1653-1661 (2016). PMID 27417180

Compound	half-life [min]
COc1ccc(CN2CCC3(COc4ccccc4C(=O)N3)C2)cc1 (stereo not given)	34.7
CCOc1cc(=O)n2c(c1C(=O)Nc1ccc(C#N)cc1)CCCC2	101
CN(Cc1ccccc1)C1CCOc2ccccc21 (stereo not given)	7.6
CC1(c2ccccc2)N(Cc2ccccc2)C(=O)OC12CCN(Cc1cccc(C#N)c1)CC2 (stereo not given)	> 120
O=C(O)c1ccc(-c2ccc(N3CCCCCC3)nc2)cc1	> 120
O=C(c1cccs1)N1CCC(Oc2ccccc2)C1 (stereo not given)	38.3
CC1(c2ccccc2)N(Cc2ccccc2)C(=O)OC12CCN(Cc1ccc(C(=O)O)cc1)CC2 (stereo not given)	> 120
CCN1CCN(C(=O)C2Cn3cccc3C(=O)N2CC(C)C)CC1 (stereo not given)	> 120
COc1cccc(-c2c(C(=O)Nc3ccc(C)cc3)nc3sccn23)c1	93
CNC(=O)[C@@H]1CN(C(=O)c2cccc(C#N)c2)C[C@H]1COC	86.6
Cn1cnc2ccc(Nc3cccc(F)c3)nc2c1=O	115
Cc1cc(F)ccc1OC1CN(Cc2ccc(C#N)cc2)C1	35.4
COc1cccc(-c2cn3c(n2)N(C(=O)c2ccoc2)CCC3)c1	112
COc1ccccc1CN1CCC2(CC1)CC(O)CCO2 (stereo not given)	> 120
CCOCCOC1CCN(C(=O)Nc2ccccc2)CC1	> 120
CC(C)(C)c1coc([C@@H]2COCCN2Cc2ccc(C(=O)O)cc2)n1	113
O=C(O)c1ccc(-c2ncc3cnc(-c4cccc(F)c4)cn23)cc1	> 120
CNC(=O)[C@@H]1CN(C(=O)c2cccc(OC)c2)C[C@H]1COC	> 120
COc1ccc(CN2CC[C@@](C)(O)[C@H](N3CCCC3)C2)cc1	> 120
COCCNC(=O)c1nc2sccn2c1-c1cccc(C#N)c1	> 120
COc1ccc(CN2CCC(N3CCOC3=O)CC2)cc1	> 120
N#Cc1ccc(CN2CC(Oc3ccc(F)c(F)c3)C2)cc1	71.4
Cc1noc(-c2cn(C3CCN(C(=O)c4ccccc4)C3)nn2)n1 (stereo not given)	> 120
N#Cc1ccc(C(=O)N2CCCOCCNC(=O)CC2)cc1	> 120
O=C(c1ccoc1)N1CCC(Oc2ccccc2)C1 (stereo not given)	> 120
CC(=O)N1CCC(Cc2ccc(C(=O)NC3CC3)cc2)CC1	80.1
COc1cccc(CN2CCC3(CC2)OCCN(C)C3=O)c1	> 120

Compound	half-life [min]
COc1cccc(-c2cn3c(n2)N(C(=O)c2cccs2)CCC3)c1	> 120
COc1cccc(CN2CC[C@H](c3nc4ccccc4[nH]3)C2)c1	> 120
COc1cccc(CN2CC[C@H](c3nnc(-c4ccco4)o3)C2)c1	118
N#Cc1cccc(CN2C[C@@H](CO)[C@H](c3ccccn3)C2)c1	57.4
CN(Cc1cccc(F)c1)C1CCOc2ccccc21 (stereo not given)	8.6
O=C(Nc1cnc(-c2ccccc2)nc1)c1cccc(F)c1	52
Fc1cccc(-c2noc(-c3nc(-c4ccncc4)no3)n2)c1	26.4
Fc1cccc(Nc2ncc(-c3cncnc3)c3c2OCC3)c1	> 120
O=C(c1cccc(F)c1)N1CCC(Oc2cccnc2)C1 (stereo not given)	> 120
COCCOC1CCN(C(=O)Nc2ccccc2)CC1	> 120
O=c1c2nc(Nc3cccc(F)c3)ccc2ncn1-c1ccccc1	93.9
Fc1cccc(Nc2ncc(-c3cccnc3)c3c2OCC3)c1	76.6
N#Cc1ccc(CN2CC(N3CCc4ccccc43)C2)cc1	96.8
N#Cc1cccc(-c2cn3c(n2)N(C(=O)c2cccs2)CCC3)c1	> 120
N#Cc1cccc(-c2cn3c(n2)N(C(=O)c2ccoc2)CCC3)c1	> 120
O=C(O)c1ccc(CN2CCOC[C@H]2c2ncc(-c3ccc(F)cc3)[nH]2)cc1	> 120
O=C(c1ccoc1)N1CCC(Oc2cccc(F)c2)C1 (stereo not given)	70.5
COc1ccc(C(=O)N2CCCOCCNC(=O)CC2)cc1	70.1
N#Cc1ccc(CN2CC(Oc3ccc(F)cc3F)C2)cc1	62.9
Cc1ccsc1-c1[nH]nc2ncc(-c3ccccc3)nc12	18.5
Cc1nnc([C@H]2CCN(Cc3ccc(C#N)cc3)C2)o1	> 120
CCOc1cc(=O)n2c(c1C(=O)Nc1ccc(S(N)(=O)=O)cc1)CCCC2	> 120
CN(C)[C@@H]1CN(C(=O)c2ccc(C#N)cc2)C[C@H]1CO	> 120
O=C(c1ccc(-c2ncc3cnc(-c4cccc(F)c4)cn23)cc1)N1CCc2cccnc21	17.3
COCCNc1nc(N)nc2c1CCN(C(=O)c1cscn1)CC2	> 120
N#Cc1cccc(-c2cn3c(n2)N(C(=O)c2ccco2)CCC3)c1	36.7
Cc1ccccc1-c1[nH]nc2ncc(-c3ccccc3C#N)nc12	> 120

Compound	half-life [min]
Cc1nn2c(c1-c1ccccc1Oc1ccccc1)N(Cc1ccc(C(=O)O)cc1)CCC2	> 120
COc1ccc(OC2CN(Cc3ccc(C#N)cc3)C2)cc1	> 120
COc1ccc(-c2[nH]nc3ncc(-c4cccc(F)c4)nc23)c(C)c1	75.8
COc1cccc(-c2c(C(=O)NC3CC3)nc3sccn23)c1	> 120
CN1c2cc(C(=O)Nc3ccc(C#N)cc3)ccc2C(=O)N2CCCCC21 (stereo not given)	> 120
O=C(O)c1ccc2c(c1)n(Cc1cccc(F)c1)c(=O)c1ccnn12	> 120
O=C(O)c1ccc(CN2CC(COc3ccccc3)C3(C2)CN(c2ccccc2)C3)cc1 (stereo not given)	> 120
COC(=O)[C@@H]1Cc2ncn(C)c2CN1C(=O)c1ccc(C#N)cc1	> 120
O=C(N1CCN([S+](=O)([O-])c2ccccc2)CC1)N1CC2CC(C1)[C@H]1CCCC(=O)N1C2 (stereo not given in full)	> 120
N#Cc1ccc(CN2CCC3(COc4ccccc4C(=O)N3)C2)cc1 (stereo not given)	38.4
COc1ccc(CN2CCC(N3Cc4cccn4C3=O)CC2)cc1	> 120
COc1ccc(CN2CC(Oc3ccc(F)cc3F)C2)cc1	36.3
Cc1ccccc1-c1[nH]nc2ncc(-c3cccc(F)c3)nc12	49
Cc1noc(C)c1-c1cc(-c2cccc(F)c2)cn2cncc12	90
CCN1CCN(C(=O)c2cc(-c3ccc(F)cc3)nc3c2cnn3C)CC1	> 120
N#Cc1ccc(CN2CCC3(C2)NC(=O)c2ccccc2O3)cc1 (stereo not given)	> 120
C[C@@]1(O)CCN(Cc2ccc(C#N)cc2)C[C@H]1N1CCCC1	> 120
Cc1ccc(NC(=O)c2nc3sccn3c2-c2cccc(C#N)c2)cc1	17.4
Cc1nn2c(c1-c1ccccc1Oc1ccccc1)N(Cc1cccc(C#N)c1)CCC2	> 120
COc1ccc(CN2CCC(N3CCNC3=O)CC2)cc1	> 120
O=C(Nc1ncc(-c2cccc(F)c2)c2c1OCC2)c1ccncc1	> 120
N#Cc1ccc(CN2CCC(N3Cc4cccn4C3=O)CC2)cc1	> 120
N#Cc1cccc(CN2CC[C@H](c3nc4ccccc4[nH]3)C2)c1	> 120
O=C(c1ccncc1)N1CCC(Oc2cccc(F)c2)C1 (stereo not given)	> 120
N#Cc1ccnc(-c2nnc3ccc(NCc4cnccn4)nn23)c1	> 120
CCN1CCN(C(=O)Cc2cccn2-c2ccc(F)cc2)CC1	> 120
N#Cc1cncc(N2CC3CCC(C2)N3CC(F)(F)F)c1	> 120

Compound	half-life [min]
N#Cc1ccc(CN2CCC(N3CCOC3=O)CC2)cc1	> 120
O=C(c1cccs1)N1CCC(Oc2cccc(F)c2)C1 (stereo not given)	17.4
CN1CCOC2(CCN(Cc3cccc(C#N)c3)CC2)C1=O	> 120
COc1ccc(CN2CC(Oc3ccc(F)c(C)c3)C2)cc1	21.6
N#Cc1ccccc1CN1CCC2(CC1)CC(O)CCO2 (stereo not given)	80.3
CN(CC1CCOC1)C(=O)Nc1ccccc1 (stereo not given)	> 120
CN1CCN(C(=O)Cc2cccn2-c2ccc(F)cc2)CC1	> 120
N#Cc1ccc(CN2C[C@@H](CO)[C@H](c3ccncc3)C2)cc1	107
CN(CC1CCOC1)C(=O)Nc1cccc(F)c1 (stereo not given)	> 120
COC1CCC12CCN(C(=O)c1ccc(C#N)cc1)CC2 (stereo not given)	79.2
Cc1cc2cc(-c3c(C)noc3C)nc(Nc3cccc(F)c3)c2o1	8.2
COc1ccc(C(=O)N2CCC3(CCC3OC)CC2)cc1 (stereo not given)	70
Cn1ccc(NC(=O)c2ccc(-c3ncc4cnc(-c5cccc(F)c5)cn34)cc2)n1	33.2
COCCNC(=O)c1nc2sccn2c1-c1cccc(OC)c1	> 120
O=c1cc(N2CCOCC2)oc2c(-c3cccc(F)c3)nccc12	> 120
N#Cc1cccc(CN2CCOC[C@H]2c2ncc(-c3ccc(F)cc3)[nH]2)c1	94.7
CN1CCN(C(=O)c2ccc3nccn3c2)CC1	> 120
COc1ccc(CN2CCC3(C2)NC(=O)c2ccccc2O3)cc1 (stereo not given)	> 120
Cc1noc(-c2cn(C3CCN(C(=O)c4cccc(F)c4)C3)nn2)n1 (stereo not given)	> 120
N#Cc1ccc(CN2CCC3(CC2)CC(=O)c2ccccc2O3)cc1	> 120
O=c1c2nc(Nc3cccc(F)c3)ccc2ncn1-c1cccnc1	96.4
COc1ccc(CN2CC(Oc3ccc(F)cc3C)C2)cc1	21
COc1ccc(CN2CCC3(CC2)CC(=O)c2ccccc2O3)cc1	> 120
COc1ccc(CN2CC(Oc3ccc(F)c(F)c3)C2)cc1	30
